Experimental data as given in patent US9096601B2 (CSPC Zhongqi Pharmaceutical Technology (Shijiazhuang) Co., …, priority 2010, dated 2015).

How the values were obtained:
Experiment in all cases: In-vitro tumor cell proliferation inhibition, MTT
Format in all cases: cell-based, human
[1] = test system: non-small cell lung carcinoma cell strain H1975 (EGFR L858R/T790M mutation); details: 72 hours
Method: (§1) The object of this assay was to test the inventive compounds for the inhibitory activity of in-vitro tumor cell proliferation. The MTT (tetreamethyl-azo-zole-salt) colorimetric method was used in this assay.
(§2) All of the above-mentioned non-small cell lung carcinoma cell strains and the breast carcinoma cell strain BT 474 were cultured with a RPMI-1640 complete culture medium containing 10% fetal bovine serum, 100 U/ml penicillin and 100 μg/ml streptomycin under 5% CO2 and at 37° C. The other cell strains were cultured with a DMEM complete culture medium containing 10% fetal bovine serum (having a MV4-11 cell content of 20%), 100 U/ml penicillin and 100 μg/ml streptomycin under 5% CO2 and 37° C.
(§3) A cell suspension having a cell concentration of 1-2×10^4 cells/ml was treated with a complete cell culture solution to adjust the cell concentration, wherein the cell concentrations for HCC827 and MV4-11 were adjusted to 6×10^4 cells/ml and 1×10^5 cells/ml respectively. The cell suspension was inoculated in a 96-well plate with 200 μl cell suspension/well and cultured overnight. Next day, the supernatant was drawn off and discarded. Then, the cells were treated with the tested compounds in a gradient concentration respectively. In the meanwhile, a negative control group free of the drug substance and an isovolumetric solvent control group (having a DMSO concentration of 1%) were used. The triplicate wells were used for each of dose groups. The culturing was conducted at 37° C. under 5% CO2. After 72 hours, […] having a concentration of 5 mg/ml was added to each of wells. The culturing was further conducted for 2-4 hours. The supernatant was discarded. Then […] was added to each of wells. The contents in the well were mixed homogenously by oscillation for 15 minutes. The absorbance (A) value was measured with a microplate reader at λ=570 nm (the A value is in the direct proportion to the number of living cells) and averaged. The relative cell proliferation inhibitory rate is (A570 control-group−A570 dose-group)/A570 control-group×100%. The assay was repeated for at least three times. The data was expressed as number average. The statistical data were analyzed using t-test. P<0.05 was considered significant. The cell proliferation inhibition of the following compounds was expressed as IC50 or inhibitory rate.

[2] = test system: non-small cell lung carcinoma cell strain H292 (EGFR WT); details: 72 hours
Method: as §1, §2, §3

[3] = test system: non-small cell lung carcinoma cell strain HCC827; details: 72 hours
Method: as §1, §2, §3

[4] = test system: non-small cell lung carcinoma cell strain PC-9 (EGFR delE746-A750 deletion mutation); details: 72 hours
Method: as §1, §2, §3

[5] = test system: acute myelogenous leukemia cell strain MV4-11; details: 72 hours
From the text: as §1
(§4) Human non-small cell lung carcinoma cell strains HCC827, PC-9, H1975 (EGFR L858R/T790M mutation) and H292 (EGFR WT), and other tumor type cell strains, including human acute myelogenous leukemia cell strain MV4-11, human chronic granulocytic leukemia cell strain K562, human squamous cell carcinoma cell strain A431, human breast carcinoma cell strains MDA-MB-468 and BT 474, human colon cancer cell strains SW480, HCT116 and SW620, human liver cancer cell strain Hep G2, human gastric cancer cell strain MK-45, and human malignant melanoma cell strain A375 used in this assay were all purchased from ATCC company, USA and kept in the laboratory. All of the above-mentioned non-small cell lung carcinoma cell strains and the breast carcinoma cell strain BT 474 were cultured with a RPMI-1640 complete culture medium containing 10% fetal bovine serum, 100 U/ml penicillin and 100 μg/ml streptomycin under 5% CO2 and at 37° C. The other cell strains were cultured with a DMEM complete culture medium containing 10% fetal bovine serum (having a MV4-11 cell content of 20%), 100 U/ml penicillin and 100 μg/ml streptomycin under 5% CO2 and 37° C.
as §3

[6] = test system: breast carcinoma cell strain BT474; details: 72 hours
From the text: as §1, §4, §3

[7] = test system: breast carcinoma cell strain MDA-MB-468; details: 72 hours
From the text: as §1, §4, §3

[8] = test system: chronic granulocytic leukemia cell strain K562; details: 72 hours
From the text: as §1, §4, §3

[9] = test system: colon cancer cell strain HCT116; details: 72 hours
From the text: as §1, §4, §3

[10] = test system: colon cancer cell strain SW480; details: 72 hours
From the text: as §1, §4, §3

[11] = test system: colon cancer cell strain SW620; details: 72 hours
From the text: as §1, §4, §3

[12] = test system: gastric cancer cell strain MK-45; details: 72 hours, read-out: MK45 (IC50)
From the text: as §1, §4, §3

[13] = test system: liver cancer cell strain Hep G2; details: 72 hours, read-out: HEPG2 (IC50)
From the text: as §1, §4, §3

[14] = test system: malignant melanoma cell strain A375; details: 72 hours
From the text: as §1, §4, §3

[15] = test system: squamous cell carcinoma cell strain A431; details: 72 hours
From the text: as §1, §4, §3

Row | IC50 [1] | IC50 [2] | IC50 [3] | IC50 [4] | IC50 [5] | IC50 [6] | IC50 [7] | IC50 [8] | IC50 [9] | IC50 [10] | IC50 [11] | IC50 [12] | IC50 [13] | IC50 [14] | IC50 [15] | SMILES
1 | 6310 nM | 1230 nM | 63.1 nM | 420 nM | 125 nM | 2630 nM | 3260 nM | 1600 nM | 10500 nM | 9950 nM | > 10000 nM | 1660 nM | 8460 nM | 6570 nM | 2570 nM | Cc1nc(Nc2ccc(N3CCN(C)CC3)cc2)nc2c1nc(Nc1ccccc1)n2C(C)C [Compounds 8-34]
2 | 1520 nM | 20.3 nM | 0.2 nM | 1.5 nM | 135 nM | 192 nM | 1920 nM | 232 nM | 676 nM | 5930 nM | 2300 nM | 1110 nM | 4340 nM | 3250 nM | 635 nM | CN1CCN(c2ccc(Nc3ncc4nc(Nc5ccc(F)c(Cl)c5)n(C5CCCC5)c4n3)cc2)CC1 [Compounds 8-35]
3 | > 10000 nM | 5850 nM | 130 nM | 348 nM | 102 nM | 4520 nM | > 10000 nM | 888 nM | > 10000 nM | > 10000 nM | > 10000 nM | > 10000 nM | > 10000 nM | > 10000 nM | > 10000 nM | CN1CCN(NC(=O)c2ccc(Nc3ncc4nc(Nc5cccnc5)n(C5CCCC5)c4n3)cc2)CC1 [Compounds 8-37]
4 | 501 nM | 268 nM | 16.5 nM | 209 nM | 1970 nM | 2090 nM | 4490 nM | 146 nM | 5430 nM | 5400 nM | 2140 nM | 3340 nM | 2200 nM | > 10000 nM | 2740 nM | CC(C)n1c(Nc2ccc(Cl)nc2)nc2cnc(Nc3ccc(N4CCN(C)CC4)cc3)nc21 [Compounds 8-41]
5 | > 10000 nM | 673 nM | 4260 nM | 3320 nM | 6640 nM | 5100 nM | 1700 nM | 922 nM | > 10000 nM | > 10000 nM | > 10000 nM | 5100 nM | > 10000 nM | 498 nM | 2240 nM | CC(C)n1c(Nc2ccc(OCc3cccc(F)c3)c(Cl)c2)nc2cnc(Nc3ccc(N4CCOCC4)cc3)nc21 [Compounds 8-42]
6 | 231 nM | 102 nM | 0.3 nM | 51.9 nM | 21.2 nM | 1830 nM | 1030 nM | 122 nM | 2570 nM | 5750 nM | 5750 nM | 234 nM | 5930 nM | 1910 nM | 484 nM | CN1CCN(c2ccc(Nc3ncc4nc(Nc5ccc(Br)cc5)n(C5CCCC5)c4n3)cc2)CC1 [Compounds 8-43]
7 | 695 nM | 2.9 nM | 0.3 nM | 1.5 nM | 1140 nM | 682 nM | 2670 nM | 96.5 nM | > 10000 nM | 6160 nM | 2510 nM | 1350 nM | > 10000 nM | 1740 nM | 409 nM | CN1CCN(c2ccc(Nc3ncc4nc(Nc5cccc([N+](=O)[O-])c5)n(C5CCCC5)c4n3)cc2)CC1 [Compounds 8-44]
8 | 1140 nM | 13.9 nM | 0.2 nM | 9.7 nM | 59.4 nM | 870 nM | 2870 nM | 218 nM | 7080 nM | 7750 nM | 4970 nM | 3740 nM | > 10000 nM | 9260 nM | 1890 nM | CN1CCN(c2ccc(Nc3ncc4nc(NCc5ccccc5)n(C5CCCC5)c4n3)cc2)CC1 [Compounds 8-45]
9 | 770 nM | > 10000 nM | 0.3 nM | 3.5 nM | 4690 nM | 792 nM | 751 nM | 250 nM | 9070 nM | 4010 nM | 3620 nM | 417 nM | > 10000 nM | 400 nM | 426 nM | C#Cc1cccc(Nc2nc3cnc(Nc4ccc(N5CCN(C)CC5)cc4)nc3n2C2CCCC2)c1 [Compounds 8-46]
10 | 884 nM | 44.2 nM | 0.3 nM | 16.3 nM | 224 nM | 554 nM | 3190 nM | 97.2 nM | 6090 nM | 5530 nM | 4950 nM | 1180 nM | 8460 nM | 1570 nM | 299 nM | CN1CCN(c2ccc(Nc3ncc4nc(Nc5ccc(Br)cc5F)n(C5CCCC5)c4n3)cc2)CC1 [Compounds 8-47]
11 | 4580 nM | 18.5 nM | 0.2 nM | 26.2 nM | 583 nM | 525 nM | 2130 nM | 230 nM | > 10000 nM | 9890 nM | 2940 nM | 297 nM | > 10000 nM | 2080 nM | 788 nM | c1ccc(Nc2nc3cnc(Nc4ccc(CN5CCOCC5)cc4)nc3n2C2CCCC2)cc1 [Compounds 8-48]
12 | 310 nM | 4.5 nM | 0.3 nM | 0.2 nM | 193 nM | 2670 nM | 987 nM | 121 nM | 1440 nM | 5040 nM | 1440 nM | 543 nM | 9240 nM | 1980 nM | 586 nM | CN1CCN(c2ccc(Nc3ncc4nc(Nc5cccc(F)c5)n(C5CCCC5)c4n3)cc2)CC1 [Compounds 8-49]
13 | 182 nM | > 10000 nM | 0.3 nM | 3.5 nM | 64.4 nM | 2160 nM | 207 nM | 30.5 nM | 2470 nM | 2720 nM | 964 nM | 218 nM | 8250 nM | 1560 nM | 82.9 nM | CN1CCN(c2ccc(Nc3ncc4nc(Nc5ccccc5)n(C5CCCCC5)c4n3)cc2)CC1 [Compounds 8-50]
14 | 630 nM | 22.3 nM | 0.2 nM | 9.5 nM | 3.6 nM | 764 nM | 351 nM | 11.3 nM | 4140 nM | 6720 nM | 733 nM | 248 nM | 8220 nM | 539 nM | 248 nM | CN1CCN(c2ccc(Nc3ncc4nc(Nc5cccc(O)c5)n(C5CCCC5)c4n3)cc2)CC1 [Compounds 8-51]
